The values that follow come from paper PMC5593639, “NSC30049 inhibits Chk1 pathway in 5-FU-resistant CRC bulk and stem cell populations” (Oncotarget, 2017).

One series relates to HCT-116 cells. Briefly: Cell survival (MTT assay), HCT-116. The format is cell-based, human. As to conditions: for cytotoxic effect: 48 h; for IC50: Homo sapiens, HCT-116, 48 h. On the procedure: (§1) The survival of cells was determined by MTT (3-(4,5-Dimethylthiazol-2yl-)-2,5-diphenyl tetrazolium bromide) assay (ATCC, Manassas, VA, USA). In principle, the viable cell number is directly proportional to the purple formazan color of the reduced MTT dye, which can be quantitatively measured by spectrophotometry. Briefly, 1,500 cells were plated in quadruplets in 96-well flat-bottom tissue culture plates. After treatment with compounds for certain periods as described in respective figure legends, 10 μl of MTT reagent was added to each well and incubated at 37°C for 4 h to allow the formation of purple color crystals of formazan. In total, 100 μl of detergent solution was added to each well, and the reaction mixture was incubated in dark for 2–4 h at room temperature. The developed color density was then measured spectrophotometrically at 570 nm using the POLARstar Omega micro-plate reader (BMG Labtech, Inc., Cary, NC, USA).

Another series can be described thus: Solubility in water. Format: physicochemical.
The subject of series [1] is human immunodeficiency virus (HIV) strain 1(RF). Further details: method as in http://dtp.cancer.gov/dtpstandard/AIDSData/index.jsp. As to conditions: ref http://dtp.cancer.gov/dtpstandard/AIDSData/index.jsp; cited from earlier work.
Series [2] has as its system Chk1 phosphorylation in HT29 cells. Description: Western blot of total and phosphorylated Chk1, HT29. Format: cell-based, human. As to conditions: 2 mM HU 24 h. The procedure: (§2) The levels of various proteins were determined by Western blot analysis with our previously described procedure. The antibodies for phospho-Chk1(Ser317), phospho-Chk1(Ser317), phospho-Chk1(Ser319), phospho-Chk1(Ser345), Chk1, and GAPDH were purchased from Cell Signaling Technology (Danvers, MA, USA).

Another series relates to HT29 cells. Description: Cell cycle profile by FACS. The format is cell-based, human. As to conditions: 2 mM HU 24 h. On the procedure: For determining the cell cycle profile, cells were plated in 60 mm tissue culture dishes and grown until 60% confluence. […] After treatment, cells were harvested at different time intervals, washed with ice-cold PBS and processed for FACS analysis as described previously. The ranges for G0/G1, S, and G2/M phase arrested and sub-G1 apoptotic cells were established on the basis of the corresponding DNA content of the histograms. At minimum, 10,000 cells were counted from each sample.

For a further series, the system named is HCT116(p53−/−) cells. Briefly: MTT assay, IC50 of HU, HCT116(p53−/−). The format is cell-based, human. As to conditions: 72 h, compared with HCT116(p53+/+) cells. The procedure:
as §1

The test system of another series is CA2 CRC stem cell line. Briefly: Spheroid (sphere) formation assay. Conditions: Homo sapiens; drug alone, seventh day. The format is cell-based. On the procedure:
Live CA2 cells (100) were seeded in 384-well ultra-low attachment plates. Next, day cells were treated with different concentrations of NSC49L and 5-FU either alone or in combination. Cells were incubated for 7 days and the number of spheroids were counted in control and treated groups under an Olympus inverted microscope with a 10× magnification.

For series [3], the system named is HCoEpiC normal colonic epithelial cell line. Description: Cell survival (MTT assay), HCoEpiC. The format is cell-based. As to conditions: Homo sapiens, drug alone, 48 h. The procedure:
as §1

On the set-up of series [4]: method as in PMID 20482808. As to conditions: cited from earlier work.
The test system of the next series is SW480 cells. Briefly: Cell survival (MTT assay), SW480. Format: cell-based. As to conditions: Homo sapiens, drug alone, 48 h. On the procedure:
as §1

The subject of series [5] is ALDH1, KLF4, Nanog, Oct4, Sox2, c-Myc mRNA in CA2 cells. Briefly: Stem cell marker and self-renewal gene mRNA levels by qRT-PCR. As to conditions: drug alone, 72 h, normalized with GAPDH. Format: cell-based, human. The procedure: Total RNA was isolated from control and treated cells with RNAzol reagent (Invitogen, Carlsbad, CA, USA). The expression of mRNA levels of stemness genes was determined by qRT-PCR using Bio-Rad CFX96 Real Time System C1000 Thermal Cycler. The primers used for amplification of mRNA levels of genes were from Celprogen, Inc., as shown here with their Gene Bank accession and catalog numbers: ALDHA1 (NM_000689, Cat. No. CepALDHA1-02), Klf4 (NM_004235, Cat No. CepKlf4-02), Nanog (NM_024865, Cat. No. CepNanog-02), Oct4 (NM_002701, Cat No. CepOct4-02), Sox2 (NM_003106, Cat. No. CepSox2-02), c-Myc (NM_002467, Cat. No. Cepc-Myc-02) and GAPDH (NM_002046, Cat. No. Cep-GAPDH-02).

For series [6], the system named is Chk1 phosphorylation in HCT-116 cells. Briefly: Western blot of total and phosphorylated Chk1, HCT-116. Conditions: 5-FU alone, 24 h. The format is cell-based, human. On the procedure:
as §2

The subject of another series is LoVo cells. Description: Cell survival (MTT assay), LoVo. The format is cell-based. Conditions: Homo sapiens, drug alone, 48 h. On the procedure: as §1
For a further series, the system named is LS174T cells. Briefly: Cell survival (MTT assay), LS174T. Format: cell-based. As to conditions: Homo sapiens, drug alone, 48 h. On the procedure:
as §1

For another series, the system named is RKO cells. Description: Cell survival (MTT assay), RKO. The format is cell-based. Conditions: Homo sapiens, drug alone, 48 h. On the procedure:
as §1

The subject of series [7] is human-derived CRC stem cell tumors. Briefly: Patient-derived tumor xenograft (PDTX) of CRC stem cell tumors. As to conditions: 20 mg/kg body weight 5-FU every day, 30 days. Format: in vivo, female SCID mice. The procedure: With the pharmacokinetics analysis and MTD data in hand, we determined the efficacy of NSC49L and 5-FU alone and in combination for the growth of human-derived CRC stem cell tumors in vivo. CRC stem cells were isolated and characterized from the freshly resected human CRC tumor. One thousands of these CRC stem cells were injected subcutaneously into the right flank of the four 5-week old female SCID mice. After 20 days the first generation tumors (F0) of approximately 2,000 mm^3 in size were harvested. They were divided into four equal pieces and implanted under the skin of the female SCID mice for the growth of second generation tumors (F1) for testing the drug efficacy studies. We divided the F1 tumor bearing mice into four groups and treated them every day subcutaneously with drugs as follows: i) PBS control, (ii) 50 mg/kg body weight NSC49L, (iii) 20 mg/kg body weight 5-FU, and iv) 50 and 20 mg/kg body weight NSC49L and 5-FU, respectively, for 30 days. The treatment with drugs began after 10 days of tumor growth. The body weight and tumor volumes were recorded twice a weak. The experiment was terminated on the 32nd day.

As to `CC[N+](CC)(CC)CC=CCCl.[Cl-]` [CBTA, (4-Chloro-but-2-enyl)triethylammonium chloride, reference compound], in the series with HCT-116 cells (MTT assay, Figure 1B), the cytotoxic effect result is recorded as “very little cytotoxic effect”.
`ClC/C=C\C[N+]12CN3CN(CN(C3)C1)C2` [c-NSC30049] displayed an IC50 in the series on HCT-116 cells (MTT assay, Figure 1B, three experiments) of 7.2 µM.
With `ClCC=CC[N+]12CN3CN(CN(C3)C1)C2` [NSC30049, 1-(4-Chloro-2-butenyl)-1λ∼5∼,3,5,7-tetraazatricyclo [3.3.1.1∼3,7∼] decane], the Solubility in water entry in the series “Solubility in water” is “readily soluble in water”. In addition, the “Activity against HIV” value in series [1] was “inactive”.
Regarding `NC(=O)NO` [HU, hydroxyurea, reference compound], the “Phosphorylation of Chk1 at S317, S345 and S296” value in [2] is recorded as “increased”. Further, in the series with HT29 cells, the “Cell cycle distribution G2/M” value came to 19.4%. Also, the “Cell cycle distribution S (S-phase arrest)” value was found to be 27.7% in the series with HT29 cells and 42.4% with HT29 cells (HU withdrawn, 8 h drug-free medium). Also, the “IC50 of HU” value with HCT116(p53−/−) cells is “decreased”.
Turning to `O=c1[nH]cc(F)c(=O)[nH]1` [5-FU, 5-fluorouracil], the IC50 was determined as 7.5 µM in the series with CA2 CRC stem cell line; 513 ± 22 µM in series [3]; 113 ± 6 µM in the series with SW480 cells; 22 ± 0.9 µM in the series on LoVo cells; 51 ± 3.8 µM in the series with LS174T cells; 68 ± 10.4 µM in the series on RKO cells. Also, the IC50 with HCT-116 cells (drug alone, MTT, Table 1, four estimations) is 11.5 ± 1.5 µM. In [4], the “AUC (bioavailability)” value was 59710 ± 10580 ng·h/mL. Further, in [4], the t1/2 is 12.6 ± 3.6 min. Besides, the “mRNA levels of ALDH1, KLF4, Nanog, Oct4, Sox2 and c-Myc” value in [5] is listed as “decreased”. Also, the “Chk1 phosphorylation (S317, S345, S296)” value in series [6] was “increased phosphorylation at all three Chk1 sites”. Moreover, in series [7], the “Growth of CRC stem cell tumors” value was “initially appreciable; however after the 21st day of treatment growth of the tumors resumed”.
In the case of `C1N2CN3CN1CN(C2)C3` [HMTA, hexamethylenetetramine, reference compound], in the series on HCT-116 cells (MTT assay, Figure 1B), the cytotoxic effect result is “very little cytotoxic effect”.
